According to PubChem BioAssay (NCI):
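The compound was tested at five concentrations on cells cultured in 96-well plates, with a 48-hour exposure period. GI50 = concentration required for 50% inhibition of growth. TGI denotes the concentration required for complete inhibition of growth.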

How the values were obtained:
Test in all cases: NCI-60 cell line screen, 48 h
OVCAR-5 ovarian = system: OVCAR-5 ovarian
TK-10 renal = system: TK-10 renal
SF-268 CNS = system: SF-268 CNS
MDA-MB-435 = system: MDA-MB-435
HOP-62 NSCLC = system: HOP-62 NSCLC
SNB-19 CNS = system: SNB-19 CNS
NCI-H460 lung = system: NCI-H460 lung
DU-145 prostate = system: DU-145 prostate
EKVX NSCLC = system: EKVX NSCLC
CAKI-1 renal = system: CAKI-1 renal
SK-OV-3 ovarian = system: SK-OV-3 ovarian
M14 melanoma = system: M14 melanoma
U251 CNS = system: U251 CNS
OVCAR-8 ovarian = system: OVCAR-8 ovarian
HCC-2998 colon = system: HCC-2998 colon
SF-295 CNS = system: SF-295 CNS
RPMI-8226 leukemia = system: RPMI-8226 leukemia
NCI-H23 lung = system: NCI-H23 lung
A498 renal = system: A498 renal
SN12C renal = system: SN12C renal
MALME-3M melanoma = system: MALME-3M melanoma
HL-60(TB) leukemia = system: HL-60(TB) leukemia
BT-549 breast = system: BT-549 breast
SW-620 colon = system: SW-620 colon
MCF7 breast = system: MCF7 breast
ACHN renal = system: ACHN renal
SNB-75 CNS = system: SNB-75 CNS
IGROV1 ovarian = system: IGROV1 ovarian
T-47D breast = system: T-47D breast
NCI-H226 lung = system: NCI-H226 lung
SF-539 CNS = system: SF-539 CNS
KM12 colon = system: KM12 colon
A549 NSCLC = system: A549 NSCLC
UO-31 renal = system: UO-31 renal
NCI/ADR-RES ovarian = system: NCI/ADR-RES ovarian
HCT-15 colon = system: HCT-15 colon
HT29 colon = system: HT29 colon
OVCAR-3 ovarian = system: OVCAR-3 ovarian
UACC-257 melanoma = system: UACC-257 melanoma
SK-MEL-28 melanoma = system: SK-MEL-28 melanoma
786-0 renal = system: 786-0 renal
OVCAR-4 ovarian = system: OVCAR-4 ovarian
HOP-92 NSCLC = system: HOP-92 NSCLC
COLO 205 colon = system: COLO 205 colon
PC-3 prostate = system: PC-3 prostate
UACC-62 melanoma = system: UACC-62 melanoma
SK-MEL-5 melanoma = system: SK-MEL-5 melanoma
LOX IMVI melanoma = system: LOX IMVI melanoma
HCT-116 colon = system: HCT-116 colon
NCI-H522 lung = system: NCI-H522 lung
MDA-MB-231 breast = system: MDA-MB-231 breast

In the case of `COc1cc(C=C2c3ccccc3C(=O)c3ccccc32)ccc1OCCCCOc1cc2c(cc1OC)C(=O)N1CCCC1C=N2` (configuration not stated), the GI50 (OVCAR-5 ovarian) is reported as 581 nM, the TGI (OVCAR-5 ovarian) is reported as 1450 nM and the GI50 (TK-10 renal) is reported as 302 nM. The TGI (TK-10 renal) was 896 nM, the GI50 (SF-268 CNS) was 242 nM and the TGI (SF-268 CNS) was 726 nM. It also gave a GI50 (MDA-MB-435) of 227 nM, a TGI (MDA-MB-435) of 601 nM and a GI50 (HOP-62 NSCLC) of 579 nM. The TGI (HOP-62 NSCLC) was 1310 nM, the GI50 (SNB-19 CNS) was 1020 nM and the TGI (SNB-19 CNS) was 2560 nM. It also gave a GI50 (NCI-H460 lung) of 703 nM, a TGI (NCI-H460 lung) of 2350 nM and a GI50 (DU-145 prostate) of 208 nM. For the same compound, the TGI (DU-145 prostate) was 479 nM, the GI50 (EKVX NSCLC) was 1140 nM and the TGI (EKVX NSCLC) was 3170 nM. It also gave a GI50 (CAKI-1 renal) of 314 nM, a TGI (CAKI-1 renal) of 1020 nM and a GI50 (SK-OV-3 ovarian) of 1410 nM. The TGI (SK-OV-3 ovarian) was 3890 nM, the GI50 (M14 melanoma) was 440 nM and the TGI (M14 melanoma) was 1470 nM. For the same compound, the GI50 (U251 CNS) was 249 nM, the TGI (U251 CNS) was 704 nM and the GI50 (OVCAR-8 ovarian) was 310 nM. For the same compound, the TGI (OVCAR-8 ovarian) was 1260 nM, the GI50 (HCC-2998 colon) was 342 nM and the TGI (HCC-2998 colon) was 816 nM. The GI50 (SF-295 CNS) was 765 nM, the TGI (SF-295 CNS) was 2340 nM and the GI50 (RPMI-8226 leukemia) was 101 nM. For the same compound, the TGI (RPMI-8226 leukemia) was 354 nM, the GI50 (NCI-H23 lung) was 337 nM and the TGI (NCI-H23 lung) was 1490 nM. It also gave a GI50 (A498 renal) of 454 nM, a TGI (A498 renal) of 1610 nM and a GI50 (SN12C renal) of 458 nM. It also gave a TGI (SN12C renal) of 1880 nM, a GI50 (MALME-3M melanoma) of 399 nM and a TGI (MALME-3M melanoma) of 1590 nM. The GI50 (HL-60(TB) leukemia) was 142 nM, the TGI (HL-60(TB) leukemia) was 389 nM and the GI50 (BT-549 breast) was 91.5 nM. The TGI (BT-549 breast) was 542 nM, the GI50 (SW-620 colon) was 214 nM and the TGI (SW-620 colon) was 501 nM. It also gave a GI50 (MCF7 breast) of 304 nM, a TGI (MCF7 breast) of 1640 nM and a GI50 (ACHN renal) of 525 nM. For the same compound, the TGI (ACHN renal) was 1690 nM, the GI50 (SNB-75 CNS) was 391 nM and the TGI (SNB-75 CNS) was 1800 nM. For the same compound, the GI50 (IGROV1 ovarian) was 321 nM, the TGI (IGROV1 ovarian) was 804 nM and the GI50 (T-47D breast) was 356 nM. It also gave a TGI (T-47D breast) of 1780 nM, a GI50 (NCI-H226 lung) of 1260 nM and a TGI (NCI-H226 lung) of 3130 nM. It also gave a GI50 (SF-539 CNS) of 352 nM, a TGI (SF-539 CNS) of 1390 nM and a GI50 (KM12 colon) of 227 nM. The TGI (KM12 colon) was 608 nM, the GI50 (A549 NSCLC) was 785 nM and the TGI (A549 NSCLC) was 3220 nM. For the same compound, the GI50 (UO-31 renal) was 656 nM, the TGI (UO-31 renal) was 2090 nM and the GI50 (NCI/ADR-RES ovarian) was 1620 nM. It also gave a TGI (NCI/ADR-RES ovarian) of 8830 nM, a GI50 (HCT-15 colon) of 377 nM and a TGI (HCT-15 colon) of 1500 nM. The GI50 (HT29 colon) was 278 nM, the TGI (HT29 colon) was 1460 nM and the GI50 (OVCAR-3 ovarian) was 200 nM. For the same compound, the TGI (OVCAR-3 ovarian) was 458 nM, the GI50 (UACC-257 melanoma) was 1090 nM and the TGI (UACC-257 melanoma) was 2550 nM. The GI50 (SK-MEL-28 melanoma) was 192 nM, the TGI (SK-MEL-28 melanoma) was 430 nM and the GI50 (786-0 renal) was 448 nM. It also gave a TGI (786-0 renal) of 1110 nM, a GI50 (OVCAR-4 ovarian) of 456 nM and a TGI (OVCAR-4 ovarian) of 8450 nM. For the same compound, the GI50 (HOP-92 NSCLC) was 244 nM, the TGI (HOP-92 NSCLC) was 1050 nM and the GI50 (COLO 205 colon) was 469 nM. It also gave a TGI (COLO 205 colon) of 1670 nM, a GI50 (PC-3 prostate) of 274 nM and a TGI (PC-3 prostate) of 3560 nM. For the same compound, the GI50 (UACC-62 melanoma) was 407 nM, the TGI (UACC-62 melanoma) was 1470 nM and the GI50 (SK-MEL-5 melanoma) was 782 nM. It also gave a TGI (SK-MEL-5 melanoma) of 2050 nM, a GI50 (LOX IMVI melanoma) of 279 nM and a TGI (LOX IMVI melanoma) of 890 nM. The GI50 (HCT-116 colon) was 174 nM, the TGI (HCT-116 colon) was 409 nM and the GI50 (NCI-H522 lung) was 612 nM. The TGI (NCI-H522 lung) was 9950 nM, the GI50 (MDA-MB-231 breast) was 603 nM and the TGI (MDA-MB-231 breast) was 11800 nM.
